Holding throughout (format): functional
Holding throughout (design): scale not given: the % may be the effect or the level left

The test system of test [1] is Rattus norvegicus. Put plainly: Analgesic activity inRattus norvegicus albino (rat) assessed as reduction of minimum electric shock-induced pain at 100 mg/kg after 1 hr relative to control.
Test [2] concerns Rattus norvegicus. Nature of the test: Anti-inflammatory activity inRattus norvegicus albino (rat) assessed as reduction of cotton pellet-induced dry weight of granuloma at 100 mg/kg, po measured after 7 days relative to control.
For test [3], the system named is Rattus norvegicus. Put plainly: Analgesic activity inRattus norvegicus albino (rat) assessed as reduction of minimum electric shock-induced pain at 100 mg/kg after 2 hr relative to control.
Test [4] concerns Rattus norvegicus. Nature of the test: Anti-inflammatory activity inRattus norvegicus albino (rat) assessed as reduction of carrageenan-induced paw edema at 100 mg/kg, po administered 1 hr prior to carrageenan challenge measured after 3 hr by mercury plethysmographic analysis relative to control. (Carrageenan injected into the paw causes an acute inflammation.)
Test [5] deals with Rattus norvegicus. Nature of the test: Analgesic activity inRattus norvegicus albino (rat) assessed as reduction of minimum electric shock-induced pain at 5 mg/kg after 2 hr relative to control.
Test [6] concerns Rattus norvegicus. Nature of the test: Analgesic activity inRattus norvegicus albino (rat) assessed as reduction of minimum electric shock-induced pain at 5 mg/kg after 1 hr relative to control.
The subject of test [7] is Rattus norvegicus. Nature of the test: Anti-inflammatory activity inRattus norvegicus albino (rat) assessed as reduction of carrageenan-induced paw edema at 5 mg/kg, po administered 1 hr prior to carrageenan challenge measured after 3 hr by mercury plethysmographic analysis relative to control.
Test [8] has as its system Rattus norvegicus. Put plainly: Anti-inflammatory activity inRattus norvegicus albino (rat) assessed as reduction of cotton pellet-induced dry weight of granuloma at 5 mg/kg, po measured after 7 days relative to control.

Molecules are shown by their SMILES.

For the compound `CC(=O)c1c(-c2nc3ccc(I)cc3c(=O)n2-c2ccc(Cl)cc2)[nH][nH]c1=O`, the Activity is given as 47.9% in test [1], 72.2% in test [2], 61.9% in test [3] and 48.3% in test [4].
On the same counts, the results for `O=C(N/N=C/c1nc2ccc(I)cc2c(=O)n1-c1ccc(F)cc1)c1ccncc1` are 57.1%, 66.7%, 64.3% and 45.3%.
`Cc1c(N(C)CS(=O)(=O)[O-])c(=O)n(-c2ccccc2)n1C.[Na+]` [DIPYRONE SODIUM]: the Activity in test [5] is listed as 85.7%; in test [6] it was 82.9%.
For the compound `O=c1c2cc(I)ccc2nc(C2CC(c3ccccc3)=NN2)n1-c1ccc(Cl)cc1` (centres undefined), the Activity in test [1] is 55.4%; in test [2], 71.9%; in test [3], 59.2%; in test [4], 50.4%.
With `CCOc1ccccc1-n1c(N)c(C#N)c(-c2nc3ccc(I)cc3c(=O)n2-c2ccc(F)cc2)c(C#N)c1=O`, the Activity in test [1] turned out to be 45.1%; in test [2] it was 52.2%; in test [3] it was 53.1%; in test [4], 20.7%.
On the same counts, the results for `CCOc1ccccc1/N=C/c1nc2ccc(I)cc2c(=O)n1-c1ccc(F)cc1` are 39.3%, 50.2%, 56.1% and 38.9%.
Regarding `COc1ccc2c(c1)c(CC(=O)O)c(C)n2C(=O)c1ccc(Cl)cc1` [INDOMETHACIN], the Activity in test [7] is given as 78.3%; in test [8], 75.2%.
Regarding `O=C1OC(c2ccccc2)=N/C1=C/c1nc2ccc(I)cc2c(=O)n1-c1ccc(Cl)cc1`, the Activity is 60.9% in test [1], 72.6% in test [2], 63.3% in test [3] and 49.6% in test [4].
Regarding `O=C1NC(=S)S/C1=C/c1nc2ccc(I)cc2c(=O)n1-c1ccc(F)cc1`, the Activity in test [1] came to 57.9%; in test [2], 67.3%; in test [3], 61.3%; in test [4], 44.8%.
For `O=C(/C=C/c1nc2ccc(I)cc2c(=O)n1-c1ccc(F)cc1)c1ccccc1`, the Activity in test [1] worked out at 46.9%; in test [2], 41.8%; in test [3] it was 54.1%; in test [4], 28.3%.
For the compound `Cc1c(/N=C/c2nc3ccc(I)cc3c(=O)n2-c2ccc(Cl)cc2)c(=O)n(-c2ccccc2)n1C`, the Activity in test [1] came out at 53.7%; in test [2], 60.7%; in test [3] it was 54.2%; in test [4] it was 47.4%.
On the same counts, the results for `Cc1c(/N=C/c2nc3ccc(I)cc3c(=O)n2-c2ccc(F)cc2)c(=O)n(-c2ccccc2)n1C` are 64.8%, 73.5%, 65.6% and 53.5%.

(Values after ChEMBL document CHEMBL3045120, “Synthesis, characterization, and evaluation of some novel 4(3H)-quinazolinone derivatives as anti-inflammatory and analgesic agents” (2013).)
